Experimental data reported in PubChem BioAssay (NCI).
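In this assay, cells in 96-well plates receive the compound at five concentrations for 48 hours. Endpoints are linearly interpolated between the surrounding concentrations. GI50: concentration for 50% inhibition of growth. At the TGI there is no net growth.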

Columns and labels:
Assay in all cases: DTP human tumour cell line panel, 48 h
K-562 leukemia = system: K-562 leukemia
A549 NSCLC = system: A549 NSCLC
HOP-62 NSCLC = system: HOP-62 NSCLC
MDA-MB-435 = system: MDA-MB-435
PC-3 prostate = system: PC-3 prostate
UACC-62 melanoma = system: UACC-62 melanoma
SF-295 CNS = system: SF-295 CNS
SNB-75 CNS = system: SNB-75 CNS

SMILES | GI50 (K-562 leukemia) [nM] | TGI (K-562 leukemia) [µM] | GI50 (A549 NSCLC) [nM] | TGI (A549 NSCLC) [µM] | GI50 (HOP-62 NSCLC) [nM] | TGI (HOP-62 NSCLC) [µM] | GI50 (MDA-MB-435) [nM] | TGI (MDA-MB-435) [µM] | GI50 (PC-3 prostate) [nM] | TGI (PC-3 prostate) [µM] | GI50 (UACC-62 melanoma) [nM] | TGI (UACC-62 melanoma) [µM] | GI50 (SF-295 CNS) [µM] | TGI (SF-295 CNS) [µM] | GI50 (SNB-75 CNS) [nM] | TGI (SNB-75 CNS) [µM]
C=C1C(=O)O[C@H]2[C@H]1CC/C(Cn1cc(-c3cc(C)c(C)cc3C)nn1)=C\CC[C@@]1(C)O[C@@H]21 | 1390 | 6.24 | 1730 | 4.31 | 1770 | 3.97 | 1410 | 3.76 | 1470 | 3 | 1130 | 2.56 | 6.44 | 20.7 | 521 | 8.45
O=C(Nc1cccc(-n2cc(-c3ccncc3)c(-c3ccc(O)c(Cl)c3)n2)c1)Nc1cccc(C(F)(F)F)c1 | 2690 | > 100 | 1930 | 8.09 | 2750 | 8.36 | 1820 | 4.65 | 2470 | 8.96 | 2280 | 5.5 | 1.97 | 5.47 | 1430 | 9.75
CN1CCN(c2ccc(C(=O)Nc3cc(-c4cccc(NS(=O)(=O)c5ccccc5)c4)[nH]n3)cc2)CC1 | 2890 | 19.4 | 7850 | 25.4 | 6610 | 30.2 | 6840 | 22.3 | 10200 | 33.2 | 11000 | 23.4 | 3.69 | 20.9 | 1610 | 11.1
O=[N+]([O-])c1ccc(Cl)cc1N/N=C/c1cccc2cccnc12 |  | > 100 |  | > 100 |  | > 100 |  | > 100 |  | > 100 |  | > 100 |  | > 100 |  | > 100
Cn1c(=O)c(Oc2ccccc2)cc2cnc(NC3CCOCC3)nc21 | > 25000 | > 25 | > 25000 | > 25 | > 25000 | > 25 | > 25000 | > 25 | > 25000 | > 25 | > 25000 | > 25 | > 25 | > 25 | > 25000 | > 25
